From patent publication US20240018161A1, “MODULATORS OF CYSTIC FIBROSIS TRANSMEMBRANE CONDUCTANCE REGULATOR” (VERTEX PHARMACEUTICALS INCORPORATED, priority 2020, published 2024) come the findings set out here.

Each structure is given as a SMILES string.

One experiment deals with T1, CFTR-mediated short-circuit current in F508del/MF-HBE cells (Homo sapiens, UniProt P13569, DEL508-508).
T1 construct: human bronchial epithelial (HBE) cells derived from CF subjects; endogenous in cells; host or cells: primary human bronchial epithelial cells from CF subjects (F508del/MF-HBE)
T1 sequence (P13569 with tags, fused parts or gaps DEL508-508): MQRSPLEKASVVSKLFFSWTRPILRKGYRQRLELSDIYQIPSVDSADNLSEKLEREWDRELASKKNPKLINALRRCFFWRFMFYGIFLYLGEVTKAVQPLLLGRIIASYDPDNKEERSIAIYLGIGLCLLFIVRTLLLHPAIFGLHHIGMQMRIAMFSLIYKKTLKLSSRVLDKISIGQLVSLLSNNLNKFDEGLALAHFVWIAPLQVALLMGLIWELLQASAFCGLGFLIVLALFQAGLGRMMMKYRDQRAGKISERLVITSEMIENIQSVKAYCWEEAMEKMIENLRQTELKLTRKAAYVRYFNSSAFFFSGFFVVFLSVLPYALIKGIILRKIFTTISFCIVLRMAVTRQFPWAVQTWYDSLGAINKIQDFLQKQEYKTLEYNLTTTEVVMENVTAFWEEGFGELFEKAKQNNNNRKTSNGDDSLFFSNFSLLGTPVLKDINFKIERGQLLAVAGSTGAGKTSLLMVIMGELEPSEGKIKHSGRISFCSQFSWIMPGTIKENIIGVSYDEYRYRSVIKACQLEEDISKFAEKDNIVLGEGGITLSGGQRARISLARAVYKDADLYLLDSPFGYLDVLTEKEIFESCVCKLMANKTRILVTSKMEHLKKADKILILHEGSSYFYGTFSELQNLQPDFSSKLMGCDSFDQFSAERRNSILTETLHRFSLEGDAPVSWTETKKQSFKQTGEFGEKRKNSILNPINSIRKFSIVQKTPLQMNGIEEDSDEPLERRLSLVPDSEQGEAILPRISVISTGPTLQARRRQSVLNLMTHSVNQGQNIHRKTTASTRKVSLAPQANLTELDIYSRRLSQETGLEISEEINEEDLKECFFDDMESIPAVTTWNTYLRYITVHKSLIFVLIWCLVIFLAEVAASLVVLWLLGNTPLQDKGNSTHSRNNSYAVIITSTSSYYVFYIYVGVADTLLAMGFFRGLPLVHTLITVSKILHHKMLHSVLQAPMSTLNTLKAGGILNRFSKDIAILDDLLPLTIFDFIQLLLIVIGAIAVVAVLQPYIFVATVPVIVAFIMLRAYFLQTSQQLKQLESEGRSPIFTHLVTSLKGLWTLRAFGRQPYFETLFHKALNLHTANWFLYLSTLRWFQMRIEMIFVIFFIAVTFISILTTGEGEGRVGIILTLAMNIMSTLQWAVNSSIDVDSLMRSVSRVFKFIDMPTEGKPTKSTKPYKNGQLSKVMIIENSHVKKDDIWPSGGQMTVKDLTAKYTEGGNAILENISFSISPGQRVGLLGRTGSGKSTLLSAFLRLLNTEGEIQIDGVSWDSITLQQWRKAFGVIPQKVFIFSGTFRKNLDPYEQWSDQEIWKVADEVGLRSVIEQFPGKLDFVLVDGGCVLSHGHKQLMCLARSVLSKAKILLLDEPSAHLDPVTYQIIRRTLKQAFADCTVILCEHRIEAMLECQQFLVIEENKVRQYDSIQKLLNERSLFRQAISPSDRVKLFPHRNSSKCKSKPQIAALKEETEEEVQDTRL
Description: HBE2 assay: Ussing chamber assay of CFTR-mediated short-circuit currents. The experiment is classed as cell-based.
Details: not given
The protocol:
(§1) 1. Ussing Chamber Assay of CFTR-Mediated Short-Circuit Currents
(§2) Ussing chamber experiments were performed using human bronchial epithelial (HBE) cells derived from CF subjects heterozygous for F508del and a minimal function CFTR mutation (F508del/MF-HBE) and cultured as previously described (Neuberger T, Burton B, Clark H, Van Goor F Methods Mol Biol 2011:741:39-54). After four days the apical media was removed, and the cells were grown at an air liquid interface for >14 days prior to use.
(§3) To isolate the CFTR-mediated short-circuit (ISC) current, F508del/MF-HBE grown on Costar® Snapwell™ cell culture inserts were mounted in an Ussing chamber and the transepithelial ISC was measured under voltage-clamp recording conditions (Vhold=0 mV) at 37° C. The basolateral solution contained (in mM) 145 NaCl, 0.83 K2HPO4, 3.3 KH2PO4, 1.2 MgCl2, 1.2 CaCl2, 10 Glucose, 10 HEPES (pH adjusted to 7.4 with NaOH) and the apical solution contained (in mM) 145 NaGluconate, 1.2 MgCl2, 1.2 CaCl2, 10 glucose, 10 HEPES (pH adjusted to 7.4 with NaOH) and 30 μM amiloride to block the epithelial sodium channel. Forskolin (20 μM) was added to the apical surface to activate CFTR, followed by apical addition of a CFTR inhibitor cocktail consisting of BPO, GlyH-101, and CFTR inhibitor 172 (each at 20 μM final assay concentration) to specifically isolate CFTR currents. The CFTR-mediated ISC (μA/cm^2) for each condition was determined from the peak forskolin response to the steady-state current following inhibition.
(§4) 2. Identification of Corrector Compounds
(§5) The activity of the CFTR corrector compounds on the CFTR-mediated ISC was determined in Ussing chamber studies as described above. The F508del/MF-HBE cell cultures were either incubated with the corrector compounds at a range of concentrations in combination with 44 nM (6R,12R)-17-amino-12-methyl-6,15-bis(trifluoromethyl)-13,19-dioxa-3,4,18-triazatricyclo[12.3.1.12,5]nonadeca-1(18),2,4,14,16-pentaen-6-ol or were incubated with the corrector compounds at a single fixed concentration of 1 and 3 μM in combination with 44 nM (6R,12R)-17-amino-12-methyl-6,15-bis(trifluoromethyl)-13,19-dioxa-3,4,18-triazatricyclo[12.3.1.12,5]nonadeca-1(18),2,4,14,16-pentaen-6-ol for 18-24 hours at 37° C. and in the presence of 2000 human serum. The concentration of corrector compounds with 44 nM (6R,12R)-17-amino-12-methyl-6,15-bis(trifluoromethyl)-13,19-dioxa-3,4,18-triazatricyclo[12.3.1.12,5]nonadeca-1(18),2,4,14,16-pentaen-6-ol during the 18-24 hours incubations was kept constant throughout the Ussing chamber measurement of the CFTR-mediated ISC to ensure compounds were present throughout the entire experiment.
Turning to `Cc1cccc(C)c1-c1cc2nc(n1)NS(=O)(=O)c1cccc(c1)C(=O)N1[C@@H](c3ncc(OC(C)C)cn3)CCC[C@@H](O2)[C@H]1CC(C)C` (single isomer, unassigned) [Compound 407, 12-(2,6-dimethylphenyl)-21-isobutyl-20-(5-isopropoxypyrimidin-2-yl)-8,8-dioxo-15-oxa-8λ^6-thia-1,9,11,22-tetrazatetracyclo[14.4.1.13,7.110,14]tricosa-3,5,7(23),10(22),11,13-hexaen-2-one], the “HBE2 Activity at 3 μM (%)” value is on record as “+ (+ is <30+)”. Same read-out and setting: then `Cc1cccc(C)c1-c1cc2nc(n1)NS(=O)(=O)c1cccc(c1)C(=O)N1[C@@H](c3ncc(OC(C)C)cn3)CCC[C@@H](O2)[C@H]1CC(C)C` (single isomer, unassigned) [Compound 408, 12-(2,6-Dimethylphenyl)-21-isobutyl-20-(5-isopropoxypyrimidin-2-yl)-8,8-dioxo-15-oxa-8λ^6-thia-1,9,11,22-tetrazatetracyclo[14.4.1.13,7.110,14]tricosa-3,5,7(23),10(22),11,13-hexaen-2-one], with “+++ (+++ is >60%)”. On the same count and under the same terms, as for `Cc1cccc(C)c1-c1cc2nc(n1)NS(=O)(=O)c1cccc(c1)C(=O)N1[C@@H](c3ncc(OC(C)C)cn3)CCC[C@@H](O2)[C@H]1CC(C)C` (single isomer, unassigned) [Compound 409, 12-(2,6-dimethylphenyl)-21-isobutyl-20-(5-isopropoxypyrimidin-2-yl)-8,8-dioxo-15-oxa-8λ^6-thia-1,9,11,22-tetrazatetracyclo[14.4.1.13,7.110,14]tricosa-3,5,7(23),10(22),11,13-hexaen-2-one], the entry is “+ (+ is <30+)”.

Turning to `Cc1cccc(C)c1-c1cc2nc(n1)NS(=O)(=O)c1cccc(c1)C(=O)N1[C@@H](c3cncc(N(C)C4CCC4)n3)CCC(O2)[C@H]1CC(C)C` (single isomer, unassigned) [Compound 410], the activation at 3 µM was > 60%. For `Cc1cccc(C)c1-c1cc2nc(n1)NS(=O)(=O)c1cccc(c1)C(=O)N1[C@@H](c3cncc(N(C)C4CCC4)n3)CC[C@H](O2)[C@H]1CC(C)C` (single isomer, unassigned) [Compound 411], the activation at 3 µM lay in the range of 30 to 60%. Still for that read-out and setting: then `Cc1cccc(C)c1-c1cc2nc(n1)NS(=O)(=O)c1cccc(c1)C(=O)N1[C@H](CCC[C@@H]1C(=O)NCc1ccccc1)CO2` [Compound 415], with 30 to 60%. The same measure, in the same setting: as for `Cc1cccc(C)c1-c1cc2nc(n1)NS(=O)(=O)c1cccc(c1)C(=O)N1C[C@@H](CCCC[C@@H]1c1ncc(OCc3ccccc3)cn1)O2` [Compound 416], the figure is 30 to 60%. On to `Cc1cccc(C)c1-c1cc2nc(n1)NS(=O)(=O)c1cccc(c1)C(=O)N1C[C@@H](CCCC[C@@H]1c1ncc(OCc3ccccc3)cn1)O2` [Compound 417], for which the “HBE2 Activity at 3 μM (%)” value is listed as “+ (+ is <30+)”. Consider `Cc1cccc(C)c1-c1cc2nc(n1)NS(=O)(=O)c1cccc(c1)C(=O)N1[C@@H](c3ncc(OC(C)C)cn3)CC[C@@H](O2)[C@H]1CC(C)C` [Compound 418], for which the activation at 3 µM was < 30%.

As to `Cc1cccc(C)c1-c1cc2nc(n1)NS(=O)(=O)c1cccc(c1)C(=O)N1[C@@H](CCCC[C@@H]1c1ncc(OCc3ccccc3)cn1)CO2` [Compound 419], the activation at 3 µM is 30 to 60%. Take `Cc1cccc(C)c1-c1cc2nc(n1)NS(=O)(=O)c1cccc(c1)C(=O)N1[C@@H](CCCC[C@@H]1c1ncc(OCc3ccccc3)cn1)CO2` [Compound 420]: the “HBE2 Activity at 3 μM (%)” value was “+ (+ is <30+)”. On to `Cc1cccc(C)c1-c1cc2nc(n1)NS(=O)(=O)c1cccc(c1)C(=O)N1[C@@H](c3ncc(OC(C)C)cn3)CCC[C@@H](O2)[C@H]1CC(C)C` [Compound 421], for which the “HBE2 Activity at 3 μM (%)” value is recorded as “+++ (+++ is >60%)”. On the same count and under the same terms, then `Cc1cccc(C)c1-c1cc2nc(n1)NS(=O)(=O)c1cccc(c1)C(=O)N1[C@@H](c3ncc(OC(C)C)cn3)CCC[C@@H](O2)[C@H]1CC(C)C` [Compound 422], with “+ (+ is <30+)”. Turning to `Cc1cccc(C)c1-c1cc2nc(n1)NS(=O)(=O)c1cccc(c1)C(=O)N1[C@@H](c3ncc(OC(C)C)cn3)CCC[C@H]1[C@H](CC(C)C)O2` [Compound 423], the activation at 3 µM lay in the range of 30 to 60%. `Cc1cccc(C)c1-c1cc2nc(n1)NS(=O)(=O)c1cccc(c1)C(=O)N1[C@@H](c3ncc(OC(C)C)cn3)CCC[C@H]1[C@@H](CC(C)C)O2` [Compound 424]: the activation at 3 µM lay within 30 to 60%. On the same count and under the same terms, then `Cc1cccc(C)c1-c1cc2nc(n1)NS(=O)(=O)c1cccc(c1)C(=O)N1[C@@H](c3cccc(N(C)C4CC5(CC5)C4)n3)CC[C@H]1[C@@H](CC(C)C)O2` [Compound 425], with 30 to 60%. The same measure, in the same setting: then `Cc1cccc(C)c1-c1cc2nc(n1)NS(=O)(=O)c1cccc(c1)C(=O)N1[C@@H](c3ncc(OC(C)C)cn3)CC[C@H](O2)[C@H]1CC(C)C` [Compound 426], with 30 to 60%.

The next experiment has as its target T1, CFTR-mediated short-circuit current in F508del/MF-HBE cells. Nature of the experiment: HBE assay: Ussing chamber assay of CFTR-mediated short-circuit currents. The experiment is classed as cell-based. Conditions: F508del/MF-HBE cells, 18-24 hours incubation. The protocol:
as §1, §2
as §3, with “MgCl2, 1.2 CaCl2), 10 Glucose,” for “MgCl2, 1.2 CaCl2, 10 Glucose,”
as §4
as §5, with “1 μM Ivacaftor” for “44 nM (6R,12R)-17-amino-12-methyl-6,15-bis(trifluoromethyl)-13,19-dioxa-3,4,18-triazatricyclo[12.3.1.12,5]nonadeca-1(18),2,4,14,16-pentaen-6-ol”, “10” for “1 and 3”, “20%” for “2000”
as §3
For the compound `Cc1cccc(C)c1-c1cc2nc(n1)NS(=O)(=O)c1cccc(c1)C(=O)N1[C@@H](c3ncc(OC(C)C)cn3)CC[C@@H](C(C)C)[C@H]1CO2` (single isomer, unassigned) [Compound 388, 13-(2,6-Dimethylphenyl)-4-(5-isopropoxypyrimidin-2-yl)-7-isopropyl-17,17-dioxo-10-oxa-17λ^6-thia-3,14,16,23-tetrazatetracyclo[16.3.1.111,15.03,8]tricosa-1(21),11,13,15(23),18(22),19-hexaen-2-one], the EC50 (in general, the midpoint of the concentration-response curve) is < 1000 nM and the “HBE Max activity (%)” value was “+++ (+++ is >60%)”. In the same order, the values of `Cc1cccc(C)c1-c1cc2nc(n1)NS(=O)(=O)c1cccc(c1)C(=O)N1[C@@H](c3ncc(OC(C)C)cn3)CC[C@@H](C(C)C)[C@H]1CO2` (single isomer, unassigned) [Compound 389, 13-(2,6-dimethylphenyl)-4-(5-isopropoxypyrimidin-2-yl)-7-isopropyl-17,17-dioxo-10-oxa-17λ^6-thia-3,14,16,23-tetrazatetracyclo[16.3.1.111,15.03,8]tricosa-1(21),11,13,15(23),18(22),19-hexaen-2-one] are 1000 to 3000 nM and “+ (+ is <30+)”.

Staying with this experiment, now noted: at 10 μM.
Regarding `Cc1cccc(C)c1-c1cc2nc(n1)NS(=O)(=O)c1cccc(c1)C(=O)N1[C@@H](c3cccc(N(C)C4CC5(CC5)C4)n3)CC[C@@H](C(C)C)[C@H]1CO2` (single isomer, unassigned) [Compound 390, 13-(2,6-dimethylphenyl)-7-isopropyl-4-[6-[methyl(spiro[2.3]hexan-5-yl)amino]-2-pyridyl]-17,17-dioxo-10-oxa-17λ^6-thia-3,14,16,23-tetrazatetracyclo[16.3.1.111,15.03,8]tricosa-1(21),11,13,15(23),18(22),19-hexaen-2-one], the “HBE Activity at 10 μM (%)” value is on record as “+++ (+++ is >60%)”.
